The record followed here is ChEMBL document CHEMBL3758085, “Synthesis and cytotoxicity of thieno[2,3-b]quinoline-2-carboxamide and cycloalkyl[b]thieno[3,2-e]pyridine-2-carboxamide derivatives” (Bioorg Med Chem, 2016).

Assay type in all cases: functional
In experiment [1] the test system is MDA-MB-231. As to the kind of experiment: Antiproliferative activity against human MDA-MB-231 cells assessed as cell growth at 1 uM incubated for 3 days by 3H-thymidine incorporation assay relative to control. The following applies: read-out: Activity. (In general: Uptake of a labelled nucleoside into DNA is a usual measure of proliferation.)
The nature of experiment [2]: Antiproliferative activity against human HCT116 cells assessed as cell growth at 1 uM incubated for 3 days by 3H-thymidine incorporation assay relative to control. The conditions noted are these: HCT-116, read-out: Activity.
In experiment [3] the test system is MDA-MB-468. The experiment in a line: Antiproliferative activity against human MDA-MB-468 cells assessed as cell growth at 1 uM incubated for 3 days by 3H-thymidine incorporation assay relative to control. The following applies: read-out: Activity.

In the case of `Nc1c(C(=O)Nc2cccc3ccccc23)sc2nc3c(cc12)CCCCC3`, the growth at 1 µM came to 106% in experiment [1], 93% in experiment [2] and 91% in experiment [3].
For `Nc1c(C(=O)Nc2ccc3ccccc3c2)sc2nc3c(cc12)CCCCC3` the same measures were 118%, 103% and 97%.
In the same order, the values of `COc1ccc(NC(=O)c2sc3nc4c(cc3c2N)CCCC4)cc1` are 98%, 99% and 84%.
In the case of `Cc1ccc2cc3cc(C(=O)Nc4cnc5ccccc5c4)sc3nc2c1`, the growth at 1 µM in experiment [1] came out at 97%; in experiment [2] it was 99%; in experiment [3], 87%.
For `CCOc1ccc2nc3sc(C(=O)Nc4ccc(Cl)cc4)c(N)c3cc2c1` the same measures were 97%, 100% and 93%.
For `Cc1ccccc1NC(=O)c1sc2nc3c(cc2c1N)CCCC3` the same measures were 70%, 84% and 53%.
For `COc1ccc(NC(=O)c2sc3nc4c(cc3c2N)CCCCCC4)cc1` the same measures were 107%, 106% and 84%.
On to `Nc1c(C(=O)Nc2cccc(Br)c2)sc2nc3c(cc12)CCCCC3`, for which the growth at 1 µM in experiment [1] stood at 92%; in experiment [2], 83%; in experiment [3] it was 45%.
In the same order, the values of `CC(=O)c1cccc(NC(=O)c2sc3nc4c(cc3c2N)CCCCCC4)c1` are 117%, 85% and 72%.
In the same order, the values of `COc1ccc(NC(=O)c2sc3nc4ccccc4cc3c2N)cc1` are 101%, 97% and 68%.
For `Nc1c(C(=O)Nc2ccccc2)sc2nc3c(cc12)CCC3` the same measures were 90%, 94% and 76%.
With `CCOc1ccc2nc3sc(C(=O)Nc4ccc(C(C)=O)cc4)c(N)c3cc2c1`, the values for the growth at 1 µM in experiment [1], in experiment [2] and in experiment [3] were 97%, 96% and 87%, respectively.
In the same order, the values of `COc1ccc(OC)c(NC(=O)c2sc3nc4c(cc3c2N)CCCCC4)c1` are 117%, 98% and 94%.
For `Nc1c(C(=O)Nc2ccc(Cl)cc2)sc2nc3c(cc12)CCCCCC3` the same measures were 117%, 94% and 82%.
As for `Nc1c(C(=O)Nc2ccccc2Cl)sc2nc3c(cc12)CCCCC3`, the figures for the growth at 1 µM in experiment [1], in experiment [2] and in experiment [3] were 89%, 92% and 73%, respectively.
In the same order, the values of `Nc1c(C(=O)Nc2cccc(Br)c2)sc2nc3c(cc12)CCC3` are 94%, 93% and 53%.
In the same order, the values of `Nc1c(C(=O)Nc2cc(C(F)(F)F)ccc2Cl)sc2nc3c(cc12)CCCCC3` are 105%, 98% and 106%.
For `CC(=O)c1ccc(NC(=O)c2sc3nc4ccccc4cc3c2N)cc1` the same measures were 95%, 93% and 70%.
For the compound `Nc1c(C(=O)Nc2ccc(Cl)c(Cl)c2)sc2nc3c(cc12)CCCCC3`, the growth at 1 µM worked out at 115% in experiment [1], 103% in experiment [2] and 77% in experiment [3].
In the case of `Cc1cc(C)c(NC(=O)c2sc3nc4c(cc3c2N)CCCC4)c(C)c1`, the figures for the growth at 1 µM in experiment [1], in experiment [2] and in experiment [3] were 97%, 101% and 93%, respectively.
In the same order, the values of `CCCCOc1cccc(NC(=O)c2sc3nc4c(cc3c2N)CCCCC4)c1` are 100%, 97% and 53%.
On to `Nc1c(C(=O)Nc2ccccc2F)sc2nc3c(cc12)CCCC3`, for which the growth at 1 µM in experiment [1] was 92%; in experiment [2], 84%; in experiment [3], 48%.
For `Nc1c(C(=O)Nc2ccc3ccccc3c2)sc2nc3c(cc12)CCCC3` the same measures were 120%, 100% and 76%.
In the same order, the values of `Cc1cccc(NC(=O)c2cc3cc4cc(C)ccc4nc3s2)c1` are 105%, 100% and 84%.
For `CCc1ccccc1NC(=O)c1sc2nc3c(cc2c1N)CCCC3` the same measures were 89%, 86% and 63%.
In the case of `Nc1c(C(=O)Nc2cccc(Cl)c2)sc2nc3c(cc12)CCC3`, the growth at 1 µM in experiment [1] came out at 92%; in experiment [2] it was 87%; in experiment [3] it was 53%.
In the same order, the values of `Nc1c(C(=O)Nc2ccccc2Cl)sc2nc3c(c(C(F)(F)F)c12)CCCCCC3` are 116%, 112% and 100%.
For `CCc1cccc(CC)c1NC(=O)c1sc2nc3c(cc2c1N)CCCC3` the same measures were 115%, 108% and 116%.
In the same order, the values of `COc1ccc2nc3sc(C(=O)Nc4cc(Cl)ccc4OC)c(N)c3cc2c1` are 86%, 100% and 104%.
On to `Nc1c(C(=O)Nc2cccc3ccccc23)sc2nc3c(cc12)CCC3`, for which the figures for the growth at 1 µM in experiment [1], in experiment [2] and in experiment [3] were 80%, 92% and 67%, respectively.
In the same order, the values of `Cc1ccc2cc3c(N)c(C(=O)Nc4ccccc4[N+](=O)[O-])sc3nc2c1` are 90%, 102% and 101%.
In the same order, the values of `Cc1ccccc1NC(=O)c1sc2nc3c(cc2c1N)CCCCC3` are 43%, 66% and 25%.
For `Nc1c(C(=O)Nc2cccc([N+](=O)[O-])c2)sc2nc3c(cc12)CCC3` the same measures were 79%, 79% and 46%.
For the compound `Nc1c(C(=O)Nc2cccc(Br)c2)sc2nc3c(cc12)CCCC3`, the growth at 1 µM in experiment [1] stood at 101%; in experiment [2], 85%; in experiment [3], 45%.
For `Cc1ccc2nc3sc(C(=O)Nc4ccccc4)cc3cc2c1` the same measures were 92%, 95% and 81%.
With `Cc1cc(C)c(NC(=O)c2sc3nc4c(cc3c2N)CCCCC4)c(C)c1`, the growth at 1 µM amounted to 98% in experiment [1], 99% in experiment [2] and 89% in experiment [3].
In the same order, the values of `Nc1c(C(=O)Nc2ccccc2C(F)(F)F)sc2nc3c(cc12)CCCCC3` are 124%, 112% and 100%.
For `Cc1ccc(C)c(NC(=O)c2cc3cc4cc(C)ccc4nc3s2)c1` the same measures were 103%, 98% and 77%.
For `Nc1c(C(=O)Nc2cccc(C(F)(F)F)c2)sc2nc3c(cc12)CCCC3` the same measures were 108%, 82% and 41%.
`Nc1c(C(=O)Nc2c(Cl)cccc2Cl)sc2nc3c(cc12)CCCC3`: the growth at 1 µM worked out at 93% in experiment [1], 100% in experiment [2] and 82% in experiment [3].
For `Nc1c(C(=O)Nc2cccc(C(F)(F)F)c2)sc2nc3c(cc12)CCC3` the same measures were 100%, 90% and 58%.
For `Nc1c(C(=O)Nc2ccccc2)sc2nc3c(c(-c4ccco4)c12)CCCCC3` the same measures were 89%, 65% and 71%.
In the same order, the values of `CCc1cccc(NC(=O)c2sc3nc4c(cc3c2N)CC(CC)CC4)c1` (stereo unspecified) are 73%, 73% and 12%.
`COc1ccc(NC(=O)c2sc3nc4c(cc3c2N)CCCCCC4)cc1OC`: the growth at 1 µM in experiment [1] worked out at 102%; in experiment [2], 106%; in experiment [3], 107%.
In the same order, the values of `Nc1c(C(=O)Nc2ccccc2C(F)(F)F)sc2nc3c(cc12)CCCC3` are 128%, 104% and 93%.
Turning to `Nc1c(C(=O)Nc2ccc(F)cc2)sc2nc3c(cc12)CCCCCC3`, the growth at 1 µM in experiment [1] was 100%; in experiment [2] it was 82%; in experiment [3] it was 65%.
For `COc1ccc(OC)c(NC(=O)c2sc3nc4c(cc3c2N)CCCCCC4)c1` the same measures were 131%, 107% and 94%.
In the case of `Nc1c(C(=O)Nc2cccc([N+](=O)[O-])c2)sc2nc3c(cc12)CCCC3`, the growth at 1 µM in experiment [1] is 71%; in experiment [2], 75%; in experiment [3], 44%.
In the same order, the values of `Nc1c(C(=O)Nc2cccc([N+](=O)[O-])c2)sc2nc3c(cc12)CCCCC3` are 67%, 51% and 18%.
For `COc1ccc(NC(=O)c2sc3nc4c(cc3c2N)CCCCCC4)c(OC)c1` the same measures were 119%, 109% and 110%.
In the same order, the values of `Nc1c(C(=O)Nc2cccc(C(F)(F)F)c2)sc2nc3c(cc12)CCCCC3` are 94%, 108% and 92%.
For `Cc1ccc2nc3sc(C(=O)Nc4ccccc4C)cc3cc2c1`, the growth at 1 µM in experiment [1] is 104%; in experiment [2] it was 99%; in experiment [3], 89%.
